Test results published in ChEMBL document CHEMBL1201862, “PubChem BioAssay data set” (2004).
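Interpolation was linear, between the two tested concentrations surrounding the appropriate level; five concentrations were tested over 48 hours in 96-well plates. GI50: concentration for 50% inhibition of growth.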 Activity calls are given as the source filed them. Rule as the data show it: active = GI50 up to about 1.1 µM and inactive = higher.

Legend:
Assay in all cases: NCI anticancer screen, dose series, 48 h
SF-295 = system: SF-295
U-251 = system: U-251
RPMI-8226 = system: RPMI-8226
COLO 205 = system: COLO 205
Malme-3M = system: Malme-3M
KM12 = system: KM12
UACC-62 = system: UACC-62
IGROV-1 = system: IGROV-1
NCI-H226 = system: NCI-H226
MCF7 = system: MCF7
SNB-75 = system: SNB-75
HCT-116 = system: HCT-116
SK-MEL-28 = system: SK-MEL-28
SN12C = system: SN12C
SF-539 = system: SF-539
OVCAR-4 = system: OVCAR-4
UO-31 = system: UO-31
OVCAR-3 = system: OVCAR-3
M14 = system: M14
A549 = system: A549

Measured: GI50

O=C(/C=C/c1ccccc1)CCN1CCN(CCC(=O)/C=C/c2ccccc2)CC1
inactive: SF-295 17.2 µM | U-251 16.7 µM | RPMI-8226 > 100 µM | COLO 205 16.4 µM | Malme-3M 16.2 µM | KM12 4.82 µM | UACC-62 16.3 µM | IGROV-1 18.2 µM | NCI-H226 16.2 µM | MCF7 5.81 µM | SNB-75 15.8 µM | HCT-116 2.16 µM | SK-MEL-28 14.2 µM | SN12C 10.1 µM | SF-539 14.9 µM | OVCAR-4 16.5 µM | UO-31 16.9 µM | OVCAR-3 16.8 µM | M14 11.7 µM | A549 30.9 µM

CC1=CC(=O)C(C(O)(C(F)(F)F)C(F)(F)F)C(C)(C)C1 (stereo not given)
inactive: SF-295 > 10 µM | U-251 > 10 µM | RPMI-8226 > 10 µM | COLO 205 > 10 µM | Malme-3M > 10 µM | KM12 > 10 µM | UACC-62 > 10 µM | IGROV-1 > 10 µM | NCI-H226 > 10 µM | MCF7 > 10 µM | SNB-75 > 10 µM | HCT-116 > 10 µM | SK-MEL-28 > 10 µM | SN12C > 10 µM | SF-539 > 10 µM | OVCAR-4 > 10 µM | UO-31 > 10 µM | OVCAR-3 > 10 µM | M14 > 10 µM | A549 > 10 µM

CC1=CC23C(COC(=O)C24CO4)C(C(=O)O)=CC3C1C (stereo not given)
inactive: SF-295 24.3 µM | U-251 11.5 µM | RPMI-8226 2.37 µM | COLO 205 24.7 µM | Malme-3M 6 µM | KM12 6.73 µM | UACC-62 12.8 µM | IGROV-1 24.1 µM | NCI-H226 15.6 µM | MCF7 35.6 µM | SNB-75 17.7 µM | HCT-116 16 µM | SK-MEL-28 2.3 µM | SN12C 3.32 µM | SF-539 15 µM | OVCAR-4 15.2 µM | UO-31 27.3 µM | OVCAR-3 32.3 µM | M14 7.55 µM | A549 26.1 µM

O=C(O)c1ccccc1Sc1ccccc1[N+](=O)[O-]
inactive: SF-295 > 100 µM | U-251 > 100 µM | RPMI-8226 > 100 µM | COLO 205 > 100 µM | Malme-3M > 100 µM | KM12 > 100 µM | UACC-62 > 100 µM | IGROV-1 > 100 µM | NCI-H226 > 100 µM | MCF7 > 100 µM | SNB-75 76.9 µM | HCT-116 > 100 µM | SK-MEL-28 > 100 µM | SN12C > 100 µM | SF-539 > 100 µM | OVCAR-4 > 100 µM | UO-31 > 100 µM | OVCAR-3 > 100 µM | M14 > 100 µM | A549 > 100 µM
